One assay deals with Trypanasoma cruzi. Nature of the assay: Chagas disease bioassay. It counts as cell-based, T. cruzi. The following applies: Trypanosoma cruzi.
Another assay concerns Plasmodium falciparum. Nature of the assay: Malaria bioassay. It counts as cell-based. The following applies: for IC50: read-out: IC50 P. falciparum.
The test system of assay [1] is L. donovani amastigotes (LD-1S/MHOM/SD/00-strain 1S). Type of assay: cell-based. The note with it: Leishmania donovani, read-out: IC50 L. donovani.
The subject of the next assay is Leishmania. The note with it: cited from earlier work.

pIC50: −log10 of the molar value. Values after ≈ are worked out from the molar mass of the structure shown. Like-named read-outs stand apart in the source and are kept apart here. Bounds are passed on as bounds.

For the compound `O=C1C=C[C@]23Oc4ccc(O)c5c4[C@](CCC5=O)(Oc4cccc1c42)O3` [Compound 1, preussomerin EG1], the half-maximal inhibitory concentration (IC50) with Trypanasoma cruzi (read-out: IC50 T. cruzi) is > 10 µg/mL.
On to `O=C1CCC2(Oc3cccc4cccc(c34)O2)c2cccc(O)c21` [Compound 2, palmarumycin CP2], for which, in the assay on Plasmodium falciparum, the half-inhibitory concentration (IC50) is > 10 µg/mL.
As to `O=C1CCC2(Oc3cccc4cccc(c34)O2)c2c(O)ccc(O)c21` [Compound 3, palmarumycin CP17], the IC50 with Plasmodium falciparum and in the assay on Trypanasoma cruzi (read-out: IC50 T. cruzi) was > 10 µg/mL each time.
For `O=C1C=CC(=O)C2=C1[C@@H](O)CCC21Oc2cccc3cccc(c23)O1` [Compound 4, 4(S)-hydroxy-2,3-dihydro-2(H)-spiro[naphthalene-1(4H),2'-naphtho[1,8-de][1,3]dioxin]-5,8-dione], the 50% inhibitory concentration (IC50) with Plasmodium falciparum and in the assay with Trypanasoma cruzi (read-out: IC50 T. cruzi) was > 10 µg/mL in each case.
As to `Oc1cccc2c1[C@@H](O)CCC21Oc2cccc3cccc(c23)O1` [Compound 5, CJ-12,371], the IC50 in the assay on Plasmodium falciparum was > 10 µg/mL.
Turning to `C[C@@H]1[C@H](O)[C@@H](C)/C=C/C=C/C=C/C=C/C=C/C=C/C=C/[C@H](O[C@@H]2O[C@H](C)[C@@H](O)[C@H](N)[C@@H]2O)C[C@@H]2O[C@](O)(C[C@@H](O)C[C@@H](O)[C@H](O)CC[C@@H](O)C[C@@H](O)CC(=O)O[C@H]1C)C[C@H](O)[C@H]2C(=O)O` [amphotericin B], in assay [1], the pIC50 was 7.05.
As to `COc1cc(OC)c(-c2c(C)cc3cccc(OC)c3c2O)c2c1C(C)=N[C@@H](C)C2` [ancistrotanzanine A], in the assay with Leishmania, the “antileishmanial activity IC50” value is 1.8 µg/mL.
With `COc1cc(OC)c(-c2ccc(OC)c3c(OC)cc(C)cc23)c2c1C(C)=N[C@@H](C)C2` [ancistrotanzanine B], the “antileishmanial activity IC50” value with Leishmania was 1.6 µg/mL.
On to `CCN(CC)CCCC(C)Nc1ccnc2cc(Cl)ccc12` (stereo not drawn) [chloroquine, reference compound], for which the pIC50 in the assay with Plasmodium falciparum (read-out: IC50 (positive control, malaria bioassay)) is 7.00 to 7.10.
As to `CC1CS(=O)(=O)CCN1/N=C/c1ccc([N+](=O)[O-])o1` (stereo not drawn) [nifurtimox, reference compound], the IC50 with Trypanasoma cruzi (read-out: IC50 (positive control, Chagas disease bioassay)) fell in the range of 3 to 5 µg/mL (≈ 10.4 to 17.4 µM).

The IC50 is the concentration that gives 50% inhibition. The pIC50 is the IC50 on a negative log10 scale, so that one unit is a factor of ten.
